Read-outs that look alike come from different tables or passages of the source. Marks after values point to notes of the source that are not given here. One block for each compound: values may come before it.
Columns and labels:
[1] = Henry's law constant from gas tracer tests in sand column wetted with distilled water; format: physicochemical; conditions: distilled water at 22.5-24.1° C., six trials, ± 95% confidence interval
Source text: The experimental procedure used to determine KH was similar to that reported in an earlier study (Deeds, N. E.; McKinney, D. C.; Pope, G. A.; Whitely Jr., G. A. Difluoromethane as partitioning tracer to estimate vadose water saturations. Journal of Environmental Engineering 1999, 125, 630-633). A jacketed glass column 60-cm long and 5-cm in diameter (Ace Glass, Inc., Vineland, N.J.) was packed with 50/70 silica sand (d50=0.26 mm, uniformity index=1.186; U.S. Silica, Ill.) underwater using distilled water. The column was positioned vertically, and suction was applied to the bottom of the column to drain water from the porous medium. […]
A water bath and pump were used to recirculate water in the glass jacket surrounding the porous medium to maintain fluid and gas temperatures between 22.5-24.1° C. during the experiments. […] Tracer concentrations in the gas samples were quantified with a gas chromatograph (Model 8610C, SRI Instruments, Torrance, Calif.): tracers were separated using mol-sieve and silica gel packed columns and then detected with a thermal conductivity (helium) or flame ionization detector (difluoromethane). […]
The Henry's law constant was determined in each of the above tests using the tracer breakthrough curves and the known porosity and water saturation for the porous medium. […]

[2] = Henry's law constant from gas tracer tests in sand column wetted with landfill leachate; format: physicochemical
Method: Three trials were performed to determine KH for the leachate. The experimental procedures were modified slightly from those described above for distilled water. Here, the column was packed with dry sand, purged with nitrogen, and the leachate was flushed upward in the vertically-mounted column to displace the gas. Nitrogen was then injected into the top of the column to force the mobile water out of the column. This procedure allowed the column to be wetted with the leachate while under anaerobic conditions. Between experimental trials anaerobic conditions were maintained in the column to minimize reactions within the leachate that might alter its composition. The temperatures for the leachate tests ranged between 25.5-26.0° C.
The Henry's law constant was determined in each of the above tests using the tracer breakthrough curves and the known porosity and water saturation for the porous medium. Time moment analysis was used to determine the mean tracer velocities; Rf was computed from eq. 1; and using known n and Sw, KH was computed from eq. 3.
Three PGTT were conducted with landfill leachate to explore the influence of leachate composition on difluoromethane partitioning. The porosity and leachate saturation of the sand column were n=0.41 and Sw=0.17 respectively, while the average interstitial gas velocity used in the tracer tests was 25.2 m/day. […]

[3] = Henry's law constant in batch systems from 4° C. to 50° C.; format: physicochemical
Method: Difluoromethane was selected as the partitioning tracer, which partitions into water within the solid waste, while helium was selected as the conservative tracer. A key thermodynamic parameter necessary for interpretation of data from a PGTT is the Henry's law constant of the partitioning tracer. Laboratory tests were conducted in batch systems to determine the Henry's law constant for difluoromethane from 4° C. to 50° C., which covers the temperature range observed in our field tests. In addition, batch experiments were also conducted with filter paper wetted to different degrees to assess the ability of PGTT to measure water in small pores and sorbed to solid surfaces.

[4] = measured at 25° C. (Worksafe Australia); cited from earlier work
[5] = clean water, Deeds et al. 1999; cited from earlier work
[6] = at 25° C., gas/water, cited from earlier work
[7] = for every 10° C. increase in temperature; cited from earlier work

- KH (dimensionless Henry's law constant) [1]: 0.47^b
- KH (dimensionless Henry's law constant) ([1]; listed as difluoromethane): 0.47±0.07
- KH (Henry's law constant) ([2]; landfill leachate (Cherry Island Landfill), 25.5-26.0° C., three trials, ± 95% confidence interval): 0.57±0.09
- Increase of KH in leachate relative to distilled water ([2]; leachate vs distilled water, mean temperature about 2.5° C. higher): 20%
- KH (Henry's law constant) ([3]; at 4° C.): 0.34
- KH (Henry's law constant) ([3]; at 50° C.): 0.99
Structure (SMILES): FCF [Difluoromethane]
- Log n-Octanol/Water Partition Coefficient [4]: 0.21^c
- KH (Henry's law constant) [5]: 0.59

Structure (SMILES): [He] [Helium]
- KH (dimensionless Henry's law constant) [6]: 106^a
- KH (dimensionless Henry's law constant) ([6]; listed as helium): ≈ 100

Structure (SMILES): CF [fluoromethane]
- Increase in KH with temperature [7]: approximately 20%

Source: patent US20070056361A1, “Partitioning gas tracer tests” (UNIVERSITY OF DELAWARE office of the Vice Provost for …, priority 2003, published 2007)
